Source: patent US20170016875A1, “ANISOTROPIC MUSCULAR TISSUE DEVICES WITH INTEGRATED ELECTRICAL FORCE READOUTS” (President and Fellows of Harvard College, priority 2014, published 2017)

System: neonatal rat ventricular myocytes (NRVM)
Assay: spontaneous beating of NRVM muscle tissue layer on cantilever device, resistance readout
Format: cell-based
Conditions: after addition of 10 μM isoproterenol; NRVM muscle tissue layer in incubator, resistance versus time (FIG. 12B)
Protocol: After placement of the wells, neonatal rat ventricular myocytes (NRVM) were seeded at a concentration of 0.3 Mio cells per ml medium, and the contraction of the resulting muscle tissue layers was tested on day 4-5 after seeding. Prior to testing, the cantilevers were released by lowering the sample temperature to room temperature to dissolve the […] sacrificial layer, meaning that the flexible substrate cantilevers were released from the underlying rigid glass substrate after development and growth of the tissue.

Structure (SMILES): CC(C)NCC(O)c1ccc(O)c(O)c1 (stereo not shown) [isoproterenol]
- spontaneous beating frequency of the cells: significantly increased
